Data on 17 compounds can be found in patent US9096605B2, “Pyrazolopyrimidine derivatives as PI3 kinase inhibitors” (GlaxoSmithKline LLC, priority 2011, dated 2015).

A value given as a limit tells only on which side of the number the result lay.

Test [1] deals with T1, PI3K-beta (Homo sapiens, UniProt P42338).
T1 construct: made in house
Put plainly: HTRF in vitro profiling assay for PI3K inhibition (beta isoform). To be noted: PI3K-beta enzyme pIC50 range, 200 pM enzyme, 100 uM ATP, 10 uM PIP2, 150 mM NaCl, corrected pIC50, read-out: PI3K-b Enz Activity. In kind it is biochemical. An excerpt: HTRF In Vitro Profiling Assays for PI3K Inhibition
The PI3-Kinase profiling assays were developed to measure the compound-dependent inhibition of the alpha, beta, delta, and gamma isoforms of PI3K in an in vitro catalytic assay. This assay was developed and optimized from a kit produced by Upstate (Millipore catalog #33-017). Briefly, this procedure utilizes a pre-formed HTRF (Homogeneous Time-Resolved Fluorescence energy transfer) complex between four binding partners: 1) biotinylated PIP3, 2) GST tagged pleckstrin homology (PH) domain, 3) Europium labeled anti-GST monoclonal antibody, and 4) Streptavidin-Allophycocyanin (APC). The native PIP3 produced by PI 3-Kinase activity displaces biotin-PIP3 from the PH domain, resulting in the dissociation of the HTRF complex and a decrease in the fluorescence signal. The format of this assay is the same for all 4 isoforms of PI3K; the differences lie in the concentration of enzyme used to achieve the most robust signal. The alpha and delta assays are run at 400 pM enzyme; the beta assay is at 200 pM enzyme and the gamma assay is run at 1 nM enzyme. In addition, the alpha, beta and delta assays are run with 150 mM NaCl while the gamma assay is run in the absence of NaCl. The ATP concentration is 100 uM in the alpha, beta, and delta assays and 15 uM ATP in the gamma assay. All reactions are run at 10 uM PIP2
Compounds are serially diluted (3-fold in 100% DMSO) across a 384-well polypropylene mother plate from column 1 to column 12 and column 13 to column 24, to yield 11 concentrations for each test compound. Columns 6 and 18 contain only DMSO. Once titrations are made, […] is transferred to a 384-well low-volume assay plate (Greiner 784076). This assay plate contains three pharmacological controls (known PI3K inhibitors) and 3 assay controls: (1) Enzyme without inhibitor; (2) Buffer minus enzyme, and (3) Buffer minus enzyme plus native PIP3. DMSO is stamped into all wells of columns 6 and 18. PIP3 is added at 40 μM in 1× Reaction buffer (1 μL of 200 μM PIP3) to alternating rows of column 18 (wells 18 B, D, F, H, J, L, N, P). The no-enzyme control reactions are run in wells 18 A, C, E, G, I, K, M, O (0.1 μL of 100% DMSO).
The PI3-Kinase profiling assay was optimized using the HTRF kit provided by Upstate (Millipore). The assay kit contains seven reagents: 1) 4× Reaction Buffer; 2) native PIP2 (substrate); 3) Stop A (EDTA); 4) Stop B (Biotin-PIP3); 5) Detection Mix A (Streptavidin-APC); 6) Detection Mix B (Eu-labeled Anti-GST plus GST-tagged PH-domain); 7) Detection Mix C (KF). In addition, the following items were obtained or purchased: PI3Kinase (prepared by GSK BR&AD), dithiothreitol (Sigma, D-5545), Adenosine-5′-triphosphate (ATP, Teknova cat. # A0220), native PIP3 (1,2-dioctanoyl-sn-glycero-3-[phosphoinositil-3,4,5-triphosphate]tetraammonium salt (Avanti polar lipids, 850186P), DMSO (Sigma, 472301).
PI3Kinase Reaction Buffer is prepared by diluting the stock 1:4 with de-ionized water. Freshly prepared DTT is added at a final concentration of 5 mM on the day of use. Enzyme addition and compound pre-incubation are initiated by the addition of 2.5 μL of PI3K (at twice its final concentration) in 1× reaction buffer to all wells using a Multidrop Combi. Plates are incubated at room temperature for 15 minutes. Reactions are initiated by addition of 2.5 μL of 2× substrate solution (PIP2 and ATP in 1× reaction buffer) using a Multidrop Combi. Plates are incubated at room temperature for one hour. Reactions are quenched by the addition of 2.5 μL of stop solution (Stop A and Stop B pre-mixed at a ratio of 5:1, respectively) to all wells using the Multidrop Combi. […]
Background: Time-resolved FRET reads energy transfer from a long-lived donor to a nearby acceptor.

Test [2] deals with pAKT(Ser473) in MDA-MB-468 cells. Put plainly: pAKT(Ser473) assay in MDA-MB-468 cells. The class given is cell-based. The note with it: Homo sapiens, 0.5 h, compound treatment 30 minutes, MSD ELISA phospho AKT(Ser473), given as ranges, read-out: Cell Activity—pAKT IC50 in MDA-MB-468. Here is the method:
pAKT(Ser473) Assay in MDA-MB-468 Cells
MDA-MB-468 cells were plated in 384-well flat clear bottom tissue culture plates (Corning #3701) at a density of 5000 cells per 0.057 cm2 in 48 ul of RPMI 1640 media supplemented with 10% fetal bovine serum (FBS). Cells were seeded with a Wellmate liquid handler (Matrix). Columns 1 through 23 were plated with cells and column 24 contained media alone. Cells were incubated at 37° C. with 5% CO2 for approximately 16-20 hours. Duplicate compound plates were prepared in 384-well polypropylene V-Bottom plates (Greiner #781280).
Compound titrations were made across the columns (A1-A20). 20 ul of compound was added to the first column and diluted into a 20 point curve with dimethylsulfoxide (DMSO, Thermo #TS2064) using a 2-fold dilution factor with a liquid handling robot (Hamilton). Columns 22 through 24 contained DMSO alone. Titrations were diluted 682-fold for compound treatment with 4 ul of compound added to 105 ul of RPMI media. Two ul of the diluted compound was added to the cell plates containing 48 ul of media using a multimek robot (Beckman Coulter). Final DMSO concentrations were 0.15%. Cells were treated with compound for 30 minutes at 37° C. with 5% CO2.
Following incubation, media was aspirated from dosed cell plates using an ELx405 plate washer (Bio-Tek) and 25 ul of 4° C. Meso Scale Discovery (MSD) lysis buffer with the addition of protease and phosphatase inhibitors (supplied in MSD kit #N31CB-1) was added to each well using a multidrop combi (Thermo). Precoated 4-spot per well MSD ELISA plates coated with total and phospho AKT(Ser473) antibody and BSA (supplied in kit) were blocked for 1 hour at room temperature with 35 ul per well of 1× MSD wash buffer+3% BSA (supplied in kit).
Blocked plates were washed 4 times with 100 ul per well of 1× Tris wash buffer (supplied in MSD kit) using an Elx405 plate washer (Bio-Tek). To each well, 20 ul of cell lysate was added using a multimek robot (Beckman Coulter) and the plate incubated at 4° C. overnight (˜12-24 hours). Following incubation, the ELISA plates were washed 4 times (100 ul/well) with 1× Tris wash buffer. Twenty microliters per well of 1× detection antibody (supplied in MSD kit) was added using a multidrop combi (Thermo), followed by a 2 hour incubation at room temperature. Detection antibody was aspirated and the plates washed 4 times (100 ul/well) with 1× Tris wash buffer. Read Buffer (supplied in MSD kit) was added at 1× (35 ul/well) at room temperature using a multidrop (Thermo). Relative luminescence units (RLU) were determined using a SECTOR™ Imager 6000 with MSD Workbench Software.
Concentration Response Curves for pAKT(Ser473):
For analysis of the pAKT(Ser473) concentration response curves, the data was normalized using Phospho AKT values divided by the sum of corresponding Total AKT and Phospho AKT values. The normalized values are plotted as the percent of the DMSO-treated control values on the corresponding plate. To determine IC50 values, the data is fit to a 4 parameter nonlinear sigmoidal dose response (variable slope) using GraphPad Prism version 4 for Windows, (GraphPad Software, San Diego Calif. USA). Criteria for curve fitting and IC50 determination include that the IC50 values from duplicate runs must be within 2 to 3-fold of each other, the Y min must be less than or equal to 30% of the DMSO-treated control and the Y max must range between 80-120%. Any data point equal to or greater than 40% of the curve was not utilized.
For orientation: ELISA stands for enzyme-linked immunosorbent assay.

T1 sequence (P42338 whole entry): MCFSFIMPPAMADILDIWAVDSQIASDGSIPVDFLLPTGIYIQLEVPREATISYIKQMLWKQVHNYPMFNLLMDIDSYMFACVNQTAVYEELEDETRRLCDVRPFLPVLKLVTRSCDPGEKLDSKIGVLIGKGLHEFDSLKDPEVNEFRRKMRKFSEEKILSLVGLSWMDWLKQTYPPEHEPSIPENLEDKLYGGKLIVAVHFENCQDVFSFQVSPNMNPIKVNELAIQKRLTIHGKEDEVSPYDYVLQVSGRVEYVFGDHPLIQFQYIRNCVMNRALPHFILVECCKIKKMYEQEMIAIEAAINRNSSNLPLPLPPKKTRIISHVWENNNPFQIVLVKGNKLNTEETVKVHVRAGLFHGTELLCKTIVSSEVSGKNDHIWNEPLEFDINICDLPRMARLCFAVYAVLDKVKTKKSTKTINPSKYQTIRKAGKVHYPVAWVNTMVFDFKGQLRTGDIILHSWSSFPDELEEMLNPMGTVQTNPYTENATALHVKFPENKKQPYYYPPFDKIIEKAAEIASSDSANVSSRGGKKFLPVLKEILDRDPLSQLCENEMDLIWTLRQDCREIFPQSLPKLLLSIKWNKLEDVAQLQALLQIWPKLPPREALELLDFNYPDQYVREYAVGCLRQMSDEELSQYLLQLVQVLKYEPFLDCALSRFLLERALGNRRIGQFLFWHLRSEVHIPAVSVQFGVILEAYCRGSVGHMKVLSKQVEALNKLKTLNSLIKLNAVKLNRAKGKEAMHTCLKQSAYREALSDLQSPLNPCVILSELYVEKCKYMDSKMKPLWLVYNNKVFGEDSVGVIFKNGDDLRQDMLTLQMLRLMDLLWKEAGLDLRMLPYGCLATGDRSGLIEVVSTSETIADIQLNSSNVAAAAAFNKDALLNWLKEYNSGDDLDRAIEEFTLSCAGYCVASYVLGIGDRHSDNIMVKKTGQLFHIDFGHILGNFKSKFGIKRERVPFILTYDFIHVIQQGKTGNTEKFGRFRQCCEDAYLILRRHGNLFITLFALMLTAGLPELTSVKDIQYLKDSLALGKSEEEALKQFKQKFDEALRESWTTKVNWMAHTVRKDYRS
T1 sequence (P27986 whole entry partner): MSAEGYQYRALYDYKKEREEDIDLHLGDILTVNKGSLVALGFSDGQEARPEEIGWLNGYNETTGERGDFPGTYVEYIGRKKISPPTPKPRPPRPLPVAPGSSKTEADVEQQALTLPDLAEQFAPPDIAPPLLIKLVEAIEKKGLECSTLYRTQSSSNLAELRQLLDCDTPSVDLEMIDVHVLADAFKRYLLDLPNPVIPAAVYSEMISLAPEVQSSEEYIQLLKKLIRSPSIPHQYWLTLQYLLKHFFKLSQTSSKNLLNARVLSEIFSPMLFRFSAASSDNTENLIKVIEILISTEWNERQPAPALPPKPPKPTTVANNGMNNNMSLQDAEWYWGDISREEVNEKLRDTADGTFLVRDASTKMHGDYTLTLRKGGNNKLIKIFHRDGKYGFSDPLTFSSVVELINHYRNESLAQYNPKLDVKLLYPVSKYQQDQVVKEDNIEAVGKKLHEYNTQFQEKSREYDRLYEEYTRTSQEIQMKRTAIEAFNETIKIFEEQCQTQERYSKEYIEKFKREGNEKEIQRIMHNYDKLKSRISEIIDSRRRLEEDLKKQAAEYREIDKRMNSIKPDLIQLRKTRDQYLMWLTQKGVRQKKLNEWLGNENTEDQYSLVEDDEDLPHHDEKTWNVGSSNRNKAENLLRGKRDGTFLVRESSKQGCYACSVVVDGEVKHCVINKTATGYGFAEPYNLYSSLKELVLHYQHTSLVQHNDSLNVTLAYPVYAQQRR

`Cc1nn2c(O)cc(N3CCOCC3)nc2c1Cc1cccc(C(F)(F)F)c1C` [Example 1, 2-methyl-3-(2-methyl-3-(trifluoromethyl)benzyl)-5-morpholinopyrazolo[1,5-a]pyrimidin-7-ol]: the IC50 in test [1] is 0.126 to 1 nM; in test [2] it was 1 to 5 µM.

Consider `Cc1nn2c(O)cc(N3CCOC(C)C3)nc2c1Cc1cccc(C(F)(F)F)c1C` (stereo not shown) [Example 2, 2-methyl-3-(2-methyl-3-(trifluoromethyl)benzyl)-5-(2-methylmorpholino)pyrazolo[1,5-a]pyrimidin-7-ol], for which the IC50 in test [1] lay in the range of 1.26 to 10 nM; in test [2] it was 1 to 5 µM.

As to `Cc1nn2c(O)cc(N3CCOCC3=O)nc2c1Cc1cccc(C(F)(F)F)c1C` [Example 3, 4-(7-hydroxy-2-methyl-3-(2-methyl-3-(trifluoromethyl)benzyl)pyrazolo[1,5-a]pyrimidin-5-yl)morpholin-3-one], the IC50 in test [1] was 126 to 1260 nM; in test [2], over 20 µM.

`Cc1nn2c(O)cc(C3CCOCC3)nc2c1Cc1cccc(C(F)(F)F)c1C` [Example 4, 2-methyl-3-(2-methyl-3-(trifluoromethyl)benzyl)-5-(tetrahydro-2H-pyran-4-yl)pyrazolo[1,5-a]pyrimidin-7-ol]: the results for the IC50 in test [1] and in test [2] were 1.26 to 10 nM and 6 to 10 µM, respectively.

Take `Cc1nn2ccc(C3CCOCC3)nc2c1Cc1cccc(C(F)(F)F)c1C` [Example 5, 2-methyl-3-(2-methyl-3-(trifluoromethyl)benzyl)-5-(tetrahydro-2H-pyran-4-yl)pyrazolo[1,5-a]pyrimidine]: the IC50 is 126 to 1260 nM in test [1] and over 20 µM in test [2].

Regarding `Cc1nn2c(N)cc(-c3ccncc3)nc2c1Cc1cccc(C(F)(F)F)c1C` [Example 6, 2-methyl-3-(2-methyl-3-(trifluoromethyl)benzyl)-5-(pyridin-4-yl)pyrazolo[1,5-a]pyrimidin-7-amine], in test [1], the IC50 was 12.6 to 100 nM.

In the case of `Oc1cc(N2CCOCC2)nc2c(Cc3cccc(Cl)c3Cl)c(C(F)(F)F)nn12` [Example 7, 3-(2,3-dichlorobenzyl)-5-morpholino-2-(trifluoromethyl)pyrazolo[1,5-a]pyrimidin-7-ol], the values for the IC50 in test [1] and in test [2] were 0.126 to 1 nM and 1 to 5 µM, respectively.

For the compound `CC1CN(c2cc(O)n3nc(C(F)(F)F)c(Cc4cccc(Cl)c4Cl)c3n2)CCO1` (stereo not shown) [Example 8, 3-(2,3-dichlorobenzyl)-5-(2-methylmorpholino)-2-(trifluoromethyl)pyrazolo[1,5-a]pyrimidin-7-ol], the IC50 was 1.26 to 10 nM in test [1] and 6 to 10 µM in test [2].

For `Oc1cc(C2CCOCC2)nc2c(Cc3cccc(Cl)c3Cl)c(C(F)(F)F)nn12` [Example 9, 3-(2,3-dichlorobenzyl)-5-(tetrahydro-2H-pyran-4-yl)-2-(trifluoromethyl)pyrazolo[1,5-a]pyrimidin-7-ol], the results for the IC50 in test [1] and in test [2] were 1.26 to 10 nM and over 20 µM, respectively.

For the compound `Cc1c(Cc2cnn3c(Cl)cc(N4CCOCC4)nc23)cccc1C(F)(F)F` [Example 10, 4-(7-chloro-3-(2-methyl-3-(trifluoromethyl)benzyl)pyrazolo[1,5-a]pyrimidin-5-yl)morpholine], the IC50 in test [1] was 126 to 1260 nM.

As for `COc1cc(N2CCOCC2)nc2c(Cc3cccc(C(F)(F)F)c3C)cnn12` [Example 12, 4-(7-methoxy-3-(2-methyl-3-(trifluoromethyl)benzyl)pyrazolo[1,5-a]pyrimidin-5-yl)morpholine], in test [1], the IC50 is 126 to 1260 nM.

Consider `CC(=O)Nc1cc(N2CCOCC2)nc2c(Cc3cccc(C(F)(F)F)c3C)c(C)nn12` [Example 18, N-[2-methyl-3-{[2-methyl-3-(trifluoromethyl)phenyl]methyl}-5-(4-morpholinyl)pyrazolo[1,5-a]pyrimidin-7-yl]acetamide], for which the IC50 in test [1] was in the range of 126 to 1260 nM.

Turning to `Cc1nn2c(N3CCOCC3)cc(N3CCOCC3)nc2c1Cc1cccc2ccccc12` [Example 28, 4,4′-(2-methyl-3-(naphthalen-1-ylmethyl)pyrazolo[1,5-a]pyrimidine-5,7-diyl)dimorpholine], the IC50 in test [1] was 126 to 1260 nM.

Turning to `COc1cc(-c2ccncc2)nc2c(Cc3cccc(Cl)c3Cl)c(C)nn12` [Example 34, 3-(2,3-dichlorobenzyl)-7-methoxy-2-methyl-5-(pyridin-4-yl)pyrazolo[1,5-a]pyrimidine], in test [1], the IC50 is 126 to 1260 nM.

For the compound `Cc1nn2c(-n3ccnc3)cc(N3CCOCC3)nc2c1Cc1cccc2ccccc12` [Example 44, 4-(7-(1H-imidazol-1-yl)-2-methyl-3-(naphthalen-1-ylmethyl)pyrazolo[1,5-a]pyrimidin-5-yl)morpholine], the IC50 in test [1] was in the range of 126 to 1260 nM.

Turning to `Cc1ccccc1Cc1c(C)nn2c(-c3cn[nH]c3)cc(-c3ccncc3)nc12` [Example 49, 2-methyl-3-(2-methylbenzyl)-7-(1H-pyrazol-4-yl)-5-(pyridin-4-yl)pyrazolo[1,5-a]pyrimidine], the IC50 in test [1] fell in the range of 126 to 1260 nM.

Turning to `Cc1ccccc1Cc1c(C)n(C)n2c(=O)cc(-c3ccncc3)nc12` [Example 51, 1,2-dimethyl-3-(2-methylbenzyl)-5-(pyridin-4-yl)pyrazolo[1,5-a]pyrimidin-7(1H)-one], in test [1], the IC50 was 126 to 1260 nM.
